A word on the IC50: it is the concentration that gives 50% inhibition. Low readings indicate greater potency, high ones weaker potency.

Where a name gives a salt, the structure may show the parent alone.

In this assay the target is T1, human CGT (ceramide galactosyltransferase), CHO/CGT lysate (Homo sapiens, UniProt Q16880).
T1 construct: Full-length human CGT cDNA was cloned into the BamH1/Xho1 site of pcDNA3.1 (+); expressed in transfected cells; host or cells: Chinese hamster ovary (CHO) cells; lysate prepared with M-PER
T1 sequence (Q16880 21-541): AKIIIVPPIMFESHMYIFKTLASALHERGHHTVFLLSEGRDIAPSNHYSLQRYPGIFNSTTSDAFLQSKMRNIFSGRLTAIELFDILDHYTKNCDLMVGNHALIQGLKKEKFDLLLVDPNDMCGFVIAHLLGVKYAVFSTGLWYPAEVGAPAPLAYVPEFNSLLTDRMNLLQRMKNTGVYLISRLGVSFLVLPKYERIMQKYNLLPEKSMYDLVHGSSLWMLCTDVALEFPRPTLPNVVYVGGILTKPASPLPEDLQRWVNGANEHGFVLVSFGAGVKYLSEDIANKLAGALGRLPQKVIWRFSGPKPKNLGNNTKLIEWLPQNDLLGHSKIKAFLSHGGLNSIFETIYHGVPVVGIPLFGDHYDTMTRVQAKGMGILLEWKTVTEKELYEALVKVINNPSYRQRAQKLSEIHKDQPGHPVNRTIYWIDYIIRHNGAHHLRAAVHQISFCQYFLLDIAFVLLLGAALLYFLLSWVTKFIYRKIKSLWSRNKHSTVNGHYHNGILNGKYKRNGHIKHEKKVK
In words: CGT enzyme assay, RapidFire/MS/MS readout (Table 1 ranges with one asterisk *). In kind it is biochemical. Conditions: RapidFire method (range with one asterisk *). An outline of the steps:
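Lysate (4 μg) of CHO cells transfected with full-length human CGT incubated 1 h at 37 °C with compound (0.001–50 μM) in pH 7.2 HEPES buffer with 10 μM C6-NBD-dihydro-ceramide, 17.5 μM UDP-galactose, Mg2+/Mn2+, CHAPS, BSA, 0.5% DMSO; ** set also contained 0.01% Tween 80. Product quantified by RapidFire/MS/MS, normalized to internal standard; IC50 from sigmoidal variable-slope fits.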
As for `NC1CC2CCC(C1)N2C(=O)[C@@H](NS(=O)(=O)c1ccc(OCC2CCCCC2)cc1)C(F)(F)c1cccc(-c2ccccc2)c1` (stereo partly drawn) [Compound 70-1, N-((2R)-1-([1,1′-biphenyl]-3-yl)-3-(3-amino-8-azabicyclo[3.2.1]octan-8-yl)-1,1-difluoro-3-oxopropan-2-yl)-4-(cyclohexylmethoxy)benzenesulfonamide trifluoroacetate], the half-inhibitory concentration (IC50) was 1 to 10 µM.

Molecule `NC1CC2CCC(C1)N2C(=O)[C@H](NS(=O)(=O)c1ccc(OCC2CCCCC2)cc1)C(F)(F)c1cccc(-c2ccccc2)c1` (stereo partly drawn) [Compound 70-2, N-((2S)-1-([1,1′-biphenyl]-3-yl)-3-(3-amino-8-azabicyclo[3.2.1]octan-8-yl)-1,1-difluoro-3-oxopropan-2-yl)-4-(cyclohexylmethoxy) benzenesulfonamide trifluoroacetate] gave an IC50 of 1 to 10 µM.

Molecule `NC1CCN(C(=O)[C@@H](NS(=O)(=O)c2ccc3cc(OC4CCCC4)ccc3c2)C(F)(F)c2ccc(C(F)(F)F)cc2)CC1` [Compound 71-1, (R)—N-(3-(4-aminopiperidin-1-yl)-1,1-difluoro-3-oxo-1-(4-(trifluoromethyl)phenyl)propan-2-yl)-6-(cyclopentyloxy)naphthalene-2-sulfonamide] returned an IC50 of under 1 µM.

In turn, `NC1CCN(C(=O)[C@H](NS(=O)(=O)c2ccc3cc(OC4CCCC4)ccc3c2)C(F)(F)c2ccc(C(F)(F)F)cc2)CC1` [Compound 71-2, (S)—N-(3-(4-aminopiperidin-1-yl)-1,1-difluoro-3-oxo-1-(4-(trifluoromethyl)phenyl)propan-2-yl)-6-(cyclopentyloxy)naphthalene-2-sulfonamide] returned an IC50 of 1 to 10 µM.

As to `NC1CCN(C(=O)[C@@H](NS(=O)(=O)c2ccc(OCC3CCCCC3)cc2)C(F)(F)c2ccc(C(F)(F)F)cc2)CC1` [Compound 72-1, (R)—N-(3-(4-aminopiperidin-1-yl)-1,1-difluoro-3-oxo-1-(4-(trifluoromethyl)phenyl)propan-2-yl)-4-(cyclohexylmethoxy)benzenesulfonamide], the IC50 was in the range of 1 to 10 µM.

Consider `NC1CCN(C(=O)[C@H](NS(=O)(=O)c2ccc(OCC3CCCCC3)cc2)C(F)(F)c2ccc(C(F)(F)F)cc2)CC1` [Compound 72-2, (S)—N-(3-(4-aminopiperidin-1-yl)-1,1-difluoro-3-oxo-1-(4-(trifluoromethyl)phenyl)propan-2-yl)-4-(cyclohexylmethoxy)benzenesulfonamide], for which the half-inhibitory concentration (IC50) fell in the range of 30 to 100 µM.

With `CN([C@H](C(=O)N1C2CCC1CC(N)C2)C(F)(F)c1ccc(C(F)(F)F)cc1)S(=O)(=O)c1ccc2cc(OC3CCCC3)ccc2c1` (stereo partly drawn) [Compound 73-1, N-((2R)-3-(3-amino-8-azabicyclo[3.2.1]octan-8-yl)-1,1-difluoro-3-oxo-1-(4-(trifluoromethyl)phenyl)propan-2-yl)-6-(cycyclopentyloxy)-N-methylnaphthalene-2-sulfonamide], the IC50 is under 1 µM.

In turn, `CN([C@@H](C(=O)N1C2CCC1CC(N)C2)C(F)(F)c1ccc(C(F)(F)F)cc1)S(=O)(=O)c1ccc2cc(OC3CCCC3)ccc2c1` (stereo partly drawn) [Compound 73-2, N-((2S)-3-(3-amino-8-azabicyclo[3.2.1]octan-8-yl)-1,1-difluoro-3-oxo-1-(4-(trifluoromethyl)phenyl)propan-2-yl)-6-(cyclopentyloxy)-N-methylnaphthalene-2-sulfonamide] gave a half-maximal inhibitory concentration (IC50) of 1 to 10 µM.

In the case of `NC1CC2CCC(C1)N2C(=O)[C@@H](NS(=O)(=O)c1ccc2c(cnn2CC2CCCC2)c1)C(F)(F)c1ccc(Br)cc1` (stereo partly drawn) [Compound 74-1, N-((2R)-3-(3-amino-8-azabicyclo[3.2.1]octan-8-yl)-1-(4-bromophenyl)-1,1-difluoro-3-oxopropan-2-yl)-1-(cyclopentylmethyl)-1H-indazole-5-sulfonamide], the IC50 was in the range of 1 to 10 µM.

With `NC1CC2CCC(C1)N2C(=O)[C@H](NS(=O)(=O)c1ccc2c(cnn2CC2CCCC2)c1)C(F)(F)c1ccc(Br)cc1` (stereo partly drawn) [Compound 74-2, N-((2S)-3-(3-amino-8-azabicyclo[3.2.1]octan-8-yl)-1-(4-bromophenyl)-1,1-difluoro-3-oxopropan-2-yl)-1-(cyclopentylmethyl)-1H-indazole-5-sulfonamide], the IC50 lay in the range of 30 to 100 µM.

The molecule `CN([C@H](C(=O)N1C2CCC1CC(N)C2)C(F)(F)c1ccc(Br)cc1)S(=O)(=O)c1ccc2c(cnn2CC2CCCC2)c1` (stereo partly drawn) [Compound 75-1, N-((2R)-3-(3-amino-8-azabicyclo[3.2.1]octan-8-yl)-1-(4-bromophenyl)-1,1-difluoro-3-oxopropan-2-yl)-1-(cyclopentylmethyl)-N-methyl-1H-indazole-5-sulfonamide] returned an IC50 of 1 to 10 µM.

For the molecule `CN([C@@H](C(=O)N1C2CCC1CC(N)C2)C(F)(F)c1ccc(Br)cc1)S(=O)(=O)c1ccc2c(cnn2CC2CCCC2)c1` (stereo partly drawn) [Compound 75-2, N-((2S)-3-(3-amino-8-azabicyclo[3.2.1]octan-8-yl)-1-(4-bromophenyl)-1,1-difluoro-3-oxopropan-2-yl)-1-(cyclopentylmethyl)-N-methyl-1H-indazole-5-sulfonamide], the IC50 was in the range of 30 to 100 µM.

In turn, `CC(C)N([C@H](C(=O)N1C2CCC1CC(N)C2)C(F)(F)c1ccc(Br)cc1)S(=O)(=O)c1ccc2cc(OC3CCCC3)ccc2c1` (stereo partly drawn) [Compound 76-1, N-((2R)-3-(3-amino-8-azabicyclo[3.2.1]octan-8-yl)-1-(4-bromophenyl)-1,1-difluoro-3-oxopropan-2-yl)-6-(cyclopentyloxy)-N-isopropylnaphthalene-2-sulfonamide] gave an IC50 of 10 to 30 µM.

`CC(C)N([C@@H](C(=O)N1C2CCC1CC(N)C2)C(F)(F)c1ccc(Br)cc1)S(=O)(=O)c1ccc2cc(OC3CCCC3)ccc2c1` (stereo partly drawn) [Compound 76-2, N-((2S)-3-(3-amino-8-azabicyclo[3.2.1]octan-8-yl)-1-(4-bromophenyl)-1,1-difluoro-3-oxopropan-2-yl)-6-(cyclopentyloxy)-N-isopropylnaphthalene-2-sulfonamide] came in with a 50% inhibitory concentration (IC50) of 30 to 100 µM.

Molecule `NC1CC2CCC(C1)N2C(=O)[C@@H](NS(=O)(=O)c1ccc2nn(CC3CCCC3)cc2c1)C(F)(F)c1ccc(Br)cc1` (stereo partly drawn) [Compound 77-1, N-((2R)-3-(3-amino-8-azabicyclo[3.2.1]octan-8-yl)-1-(4-bromophenyl)-1,1-difluoro-3-oxopropan-2-yl)-2-(cyclopentylmethyl)-2H-indazole-5-sulfonamide] registered an IC50 of 1 to 10 µM.

In turn, `NC1CC2CCC(C1)N2C(=O)[C@H](NS(=O)(=O)c1ccc2nn(CC3CCCC3)cc2c1)C(F)(F)c1ccc(Br)cc1` (stereo partly drawn) [Compound 77-2, N-((2S)-3-(3-amino-8-azabicyclo[3.2.1]octan-8-yl)-1-(4-bromophenyl)-1,1-difluoro-3-oxopropan-2-yl)-2-(cyclopentylmethyl)-2H-indazole-5-sulfonamide] returned an IC50 of 30 to 100 µM.

Regarding `CN([C@H](C(=O)N1C2CCC1CC(N)C2)C(F)(F)c1ccc(Br)cc1)S(=O)(=O)c1ccc2nn(CC3CCCC3)cc2c1` (stereo partly drawn) [Compound 78-1, N-((2R)-3-(3-amino-8-azabicyclo[3.2.1]octan-8-yl)-1-(4-bromophenyl)-1,1-difluoro-3-oxopropan-2-yl)-2-(cyclopentylmethyl)-N-methyl-2H-indazole-5-sulfonamide], the IC50 fell in the range of 1 to 10 µM.

On to `CN([C@@H](C(=O)N1C2CCC1CC(N)C2)C(F)(F)c1ccc(Br)cc1)S(=O)(=O)c1ccc2nn(CC3CCCC3)cc2c1` (stereo partly drawn) [Compound 78-2, N-((2S)-3-(3-amino-8-azabicyclo[3.2.1]octan-8-yl)-1-(4-bromophenyl)-1,1-difluoro-3-oxopropan-2-yl)-2-(cyclopentylmethyl)-N-methyl-2H-indazole-5-sulfonamide], for which the IC50 lay within 30 to 100 µM.

Regarding `CCCCOc1ccc(C(F)(F)[C@@H](C(=O)N2C3CCC2CC(N)C3)N(C)S(=O)(=O)c2ccc(OCC3CCCCC3)cc2)cc1` (stereo partly drawn) [Compound 79-1, N-((2R)-3-(3-amino-8-azabicyclo[3.2.1]octan-8-yl)-1-(4-butoxyphenyl)-1,1-difluoro-3-oxopropan-2-yl)-4-(cyclohexylmethoxy)-N-methylbenzenesulfonamide], the IC50 lay within 1 to 10 µM.

In the case of `CCCCOc1ccc(C(F)(F)[C@H](C(=O)N2C3CCC2CC(N)C3)N(C)S(=O)(=O)c2ccc(OCC3CCCCC3)cc2)cc1` (stereo partly drawn) [Compound 79-2, N-((2S)-3-(3-amino-8-azabicyclo[3.2.1]octan-8-yl)-1-(4-butoxyphenyl)-1,1-difluoro-3-oxopropan-2-yl)-4-(cyclohexylmethoxy)-N-methylbenzenesulfonamide], the IC50 was in the range of 1 to 10 µM.

Molecule `CCCCOc1ccc(C(F)(F)[C@H](NS(=O)(=O)c2ccc3cc(OC4CCCC4)ccc3c2)C(=O)N2CCC(N)CC2)cc1` [Compound 80-1, (R)—N-(3-(4-aminopiperidin-1-yl)-1-(4-butoxyphenyl)-1,1-difluoro-3-oxopropan-2-yl)-6-(cyclopentyloxy)naphthalene-2-sulfonamide] gave an IC50 of under 1 µM.
